Measurements from patent US8148391B2 (Cephalon, Inc., priority 2006, dated 2012).
Where two headings read alike, the source gives them in different places.

Key:
[1] = biological target: T1, baculovirus-expressed ALK (Homo sapiens, UniProt Q9UM73); test: ALK Kinase Assay (ELISA-type, time-resolved fluorescence); type: biochemical
T1 construct: host or cells: baculovirus expression system
Procedure, shortened: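 Substrate coating: phospholipase C-γ, 10 μg/mL in TBS. Kinase step: 30 ng/ml ALK, 15 min, 37° C. Detection and analysis: Eu-N1 PT66 antibody, with IC50 fitted as a sigmoidal variable-slope dose-response curve.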

[2] = biological target: T2, c-Met (cytoplasmic domain) (Homo sapiens, UniProt P08581); test: c-Met Kinase Assay (same methods as for ALK, with modifications); type: biochemical
T2 construct: 10 ng/mL c-Met (cytoplasmic domain, Invitrogen Corporation #PV3143); purchased Invitrogen Corporation PV3143
T2 sequence (P08581 956-1390 limits assumed): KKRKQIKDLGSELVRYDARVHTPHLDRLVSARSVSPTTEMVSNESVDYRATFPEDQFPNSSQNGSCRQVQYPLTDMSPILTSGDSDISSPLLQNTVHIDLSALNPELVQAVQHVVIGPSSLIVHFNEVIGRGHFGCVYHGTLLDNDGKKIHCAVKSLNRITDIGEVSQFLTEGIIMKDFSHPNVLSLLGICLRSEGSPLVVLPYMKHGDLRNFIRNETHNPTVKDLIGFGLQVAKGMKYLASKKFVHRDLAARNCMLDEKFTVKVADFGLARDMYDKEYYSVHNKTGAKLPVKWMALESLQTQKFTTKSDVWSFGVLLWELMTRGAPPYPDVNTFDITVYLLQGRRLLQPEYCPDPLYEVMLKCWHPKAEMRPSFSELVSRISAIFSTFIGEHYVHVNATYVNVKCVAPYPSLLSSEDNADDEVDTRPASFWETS
Procedure, shortened: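 This plate-based kinase format uses immobilized phospholipase C-γ as substrate, phosphorylated by c-Met cytoplasmic domain (10 ng/mL) at 37° C for 15 minutes.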

[3] = 1 μM ATP (Km level), read-out: ALK Activity (ALK Kinase Inhibition, IC50)
[4] = 1 μM ATP (Km level), read-out: cMet Activity (c-Met Kinase Inhibition, IC50)
[5] = ALK kinase inhibition, 1 μM ATP, read-out: ALK Activity
[6] = c-Met kinase inhibition, 1 μM ATP, read-out: cMet Activity
[7] = 1 μM ATP (Km level), 30 ng/ml ALK, 37° C., 15 minutes, read-out: ALK Activity (ALK kinase inhibition, IC50 class)
[8] = 1 μM ATP (Km level), 10 ng/mL c-Met, read-out: cMet Activity (c-Met kinase inhibition, IC50 class)

T1 sequence (Q9UM73 19-1620): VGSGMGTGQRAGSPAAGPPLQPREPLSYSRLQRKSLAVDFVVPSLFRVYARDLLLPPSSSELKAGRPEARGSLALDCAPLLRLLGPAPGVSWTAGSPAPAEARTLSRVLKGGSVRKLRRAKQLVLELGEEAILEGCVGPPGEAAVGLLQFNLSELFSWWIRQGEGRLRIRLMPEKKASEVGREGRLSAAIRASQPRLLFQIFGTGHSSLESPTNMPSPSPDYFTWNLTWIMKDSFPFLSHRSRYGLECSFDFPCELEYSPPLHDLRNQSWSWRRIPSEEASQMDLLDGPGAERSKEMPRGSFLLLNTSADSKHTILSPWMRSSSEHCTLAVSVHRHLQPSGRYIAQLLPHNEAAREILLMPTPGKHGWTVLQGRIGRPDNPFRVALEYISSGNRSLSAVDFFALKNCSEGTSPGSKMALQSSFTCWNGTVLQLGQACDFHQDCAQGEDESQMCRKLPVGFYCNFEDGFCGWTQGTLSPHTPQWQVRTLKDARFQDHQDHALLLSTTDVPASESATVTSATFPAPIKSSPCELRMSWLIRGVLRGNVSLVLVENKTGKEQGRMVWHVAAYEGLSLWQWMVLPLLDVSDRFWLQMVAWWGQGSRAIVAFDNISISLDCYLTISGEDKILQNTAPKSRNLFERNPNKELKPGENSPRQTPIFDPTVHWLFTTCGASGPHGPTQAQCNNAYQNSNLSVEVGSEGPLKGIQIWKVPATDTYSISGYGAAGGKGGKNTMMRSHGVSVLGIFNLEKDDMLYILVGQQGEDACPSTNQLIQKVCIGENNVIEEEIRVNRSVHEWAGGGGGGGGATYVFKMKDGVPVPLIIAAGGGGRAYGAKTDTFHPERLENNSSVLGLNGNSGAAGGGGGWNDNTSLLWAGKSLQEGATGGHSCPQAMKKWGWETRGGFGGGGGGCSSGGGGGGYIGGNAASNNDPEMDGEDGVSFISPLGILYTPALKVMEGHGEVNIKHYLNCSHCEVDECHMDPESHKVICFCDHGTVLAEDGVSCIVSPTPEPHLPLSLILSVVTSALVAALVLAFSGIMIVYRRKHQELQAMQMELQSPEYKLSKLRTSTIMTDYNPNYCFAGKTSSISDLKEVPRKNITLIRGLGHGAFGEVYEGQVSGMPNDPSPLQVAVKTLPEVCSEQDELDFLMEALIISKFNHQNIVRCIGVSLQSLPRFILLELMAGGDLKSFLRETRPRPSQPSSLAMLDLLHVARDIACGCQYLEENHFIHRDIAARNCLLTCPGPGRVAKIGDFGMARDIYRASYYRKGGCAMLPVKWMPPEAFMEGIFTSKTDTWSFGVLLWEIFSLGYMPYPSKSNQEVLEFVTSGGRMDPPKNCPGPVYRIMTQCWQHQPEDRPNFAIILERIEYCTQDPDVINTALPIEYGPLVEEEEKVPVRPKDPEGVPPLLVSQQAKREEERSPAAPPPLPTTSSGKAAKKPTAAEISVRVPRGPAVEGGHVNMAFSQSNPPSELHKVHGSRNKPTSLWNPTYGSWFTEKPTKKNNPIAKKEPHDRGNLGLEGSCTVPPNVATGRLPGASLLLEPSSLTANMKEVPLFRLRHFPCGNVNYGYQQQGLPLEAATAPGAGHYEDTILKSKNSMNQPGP

Question: COc1cc2c(cc1Nc1ncc(Cl)c(Nc3ccc(N4CCN(C)CC4)cc3OC)n1)CCN(CC(F)F)CC2 [Example 764, 5-Chloro-N*2*-[3-(2,2-difluoro-ethyl)-8-methoxy-2,3,4,5-tetrahydro-1H-benzo[d]azepin-7-yl]-N*4*-[2-methoxy-4-(4-methyl-piperazin-1-yl)-phenyl]-pyrimidine-2,4-diamine] was tested. Which IC50 [1, 3] did it give?
Answer: < 0.1 µM

Question: And the IC50 [2, 4]?
Answer: > 10 µM

Question: How did the IC50 [1, 3] turn out when COc1cc2c(cc1Nc1ncc(Cl)c(Nc3cc(Cl)ccc3OC)n1)CCN(CC(C)(F)F)CC2 [Example 785, 5-Chloro-N*4*-(5-chloro-2-methoxy-phenyl)-N*2*-[3-(2,2-difluoro-propyl)-8-methoxy-2,3,4,5-tetrahydro-1H-benzo[d]azepin-7-yl]-pyrimidine-2,4-diamine] was run?
Answer: 0.1 to 1 µM

Question: And the IC50 [2, 4]?
Answer: > 10 µM

Question: O=C1CCCc2ccc(Nc3ncc(Cl)c(Nc4c(F)cccc4C(=O)NCC4CC4)n3)cc2N1 [Example 1712, 2-[5-Chloro-2-(2-oxo-2,3,4,5-tetrahydro-1H-benzo[b]azepin-8-ylamino)-pyrimidin-4-ylamino]-N-cyclopropylmethyl-3-fluoro-benzamide] was tested. Which IC50 [1, 5] did it give?
Answer: 1 to 10 µM

Question: What about the IC50 [2, 6] of the same molecule?
Answer: 1 to 10 µM

Question: Which IC50 [1, 5] does the source give for COc1cc2c(cc1Nc1ncc(Cl)c(N[C@@H]3CCCC[C@H]3NS(C)(=O)=O)n1)NC(=O)CN(CC1CC1)C2 [Example 1666, N-(1R,2R)-{2-[5-Chloro-2-(4-cyclopropylmethyl-7-methoxy-2-oxo-2,3,4,5-tetrahydro-1H-benzo[e][1,4]diazepin-8-ylamino)-pyrimidin-4-ylamino]-cyclohexyl}-methanesulfonamide] here?
Answer: < 0.1 µM

Question: And the IC50 [2, 6]?
Answer: > 10 µM

Question: Which IC50 [1, 3] does the source give for COc1cc2c(cc1Nc1ncc(Cl)c(Nc3ccc(N4CCOCC4)cc3S(=O)(=O)N(C)C)n1)CCN(CC(=O)N(C)C)CC2 [Example 834, 2-{7-[5-Chloro-4-(2-dimethylsulfamoyl-4-morpholin-4-yl-phenylamino)-pyrimidin-2-ylamino]-8-methoxy-1,2,4,5-tetrahydro-benzo[d]azepin-3-yl}-N,N-dimethyl-acetamide] here?
Answer: < 0.1 µM

Question: And the IC50 [2, 4]?
Answer: > 10 µM

Question: CCN1C(=O)CCCc2c1ccc(Nc1ncc(Cl)c(N[C@@H]3[C@@H]4C[C@@H]([C@@H](O)[C@H]4O)[C@@H]3C(N)=O)n1)c2OC [Example 1699, (1R,2S,3R,4S,5S,6R)-3-[5-Chloro-2-(1-ethyl-6-methoxy-2-oxo-2,3,4,5-tetrahydro-1H-benzo[b]azepin-7-ylamino)-pyrimidin-4-ylamino]-5,6-dihydroxy-bicyclo[2.2.1]heptane-2-carboxylic acid amide] was tested. Which IC50 [1, 5] did it give?
Answer: 0.1 to 1 µM

Question: And the IC50 [2, 6]?
Answer: > 10 µM

Question: For CNC(=O)c1ccccc1Nc1nc(Nc2cc3c(cc2OC)N(C)C(=O)OCC3)ncc1Br [Example 1507, 2-[5-Bromo-2-(3-methoxy-5-methyl-6-oxo-5,6,8,9-tetrahydro-7-oxa-5-aza-benzocyclohepten-2-ylamino)-pyrimidin-4-ylamino]-N-methyl-benzamide], which IC50 [1, 5] is on record?
Answer: < 0.1 µM

Question: And the IC50 [2, 6]?
Answer: 0.1 to 1 µM

Question: How did the IC50 ([1]; ALK kinase inhibition, 1 μM ATP (Km level), read-out: ALK Activity) turn out when COCCN1CCc2ccc(Nc3ncc(Cl)c(NCCNS(C)(=O)=O)n3)cc2CC1 [Example 299, N-(2-{5-Chloro-2-[3-(2-methoxy-ethyl)-2,3,4,5-tetrahydro-1H-benzo[d]azepin-7-ylamino]-pyrimidin-4-ylamino}-ethyl)-methanesulfonamide] was run?
Answer: 0.1 to 1 µM

Question: What about the IC50 ([2]; c-Met kinase inhibition, 1 μM ATP (Km level), read-out: cMet Activity) of the same molecule?
Answer: 1 to 10 µM

Question: For CC1(C)CCC(=O)Nc2ccc(Nc3ncc(Cl)c(Nc4ccccc4-c4cnccn4)n3)cc21 [Example 975], which IC50 [1, 3] is on record?
Answer: < 0.1 µM

Question: What about the IC50 [2, 4] of the same molecule?
Answer: 1 to 10 µM

Question: Which IC50 [1, 7] does the source give for COc1cc2c(cc1Nc1ncc(Cl)c(Nc3ccccc3S(=O)(=O)N(C)C)n1)CCN(CCN1CCOCC1)C(=O)C2 [Example 1195, 2-{5-Chloro-2-[8-methoxy-3-(2-morpholin-4-yl-ethyl)-2-oxo-2,3,4,5-tetrahydro-1H-benzo[d]azepin-7-ylamino]-pyrimidin-4-ylamino}-N,N-dimethyl-benzenesulfonamide] here?
Answer: < 0.1 µM

Question: And the IC50 [2, 8]?
Answer: 1 to 10 µM

Question: COCCOc1ccccc1Nc1nc(Nc2ccc3c(c2)CCOC(=O)N3C)ncc1Cl [Example 1777, 2-{5-Chloro-4-[2-(2-methoxy-ethoxy)-phenylamino]-pyrimidin-2-ylamino}-5-methyl-8,9-dihydro-5H-7-oxa-5-aza-benzocyclohepten-6-one] was tested. Which IC50 [1, 5] did it give?
Answer: 0.1 to 1 µM

Question: What about the IC50 [2, 6] of the same molecule?
Answer: 0.1 to 1 µM

Question: Which IC50 [1, 5] does the source give for COc1cc2c(cc1Nc1ncc(Cl)c(Nc3ccccc3S(=O)(=O)N(C)C)n1)CCN(CC(=O)N1CCOCC1)CC2 [Example 1525, 2-{5-Chloro-2-[8-methoxy-3-(2-morpholin-4-yl-2-oxo-ethyl)-2,3,4,5-tetrahydro-1H-3-benzazepin-7-ylamino]-pyrimidin-4-ylamino}-N,N-dimethyl-benzenesulfonamide] here?
Answer: < 0.1 µM

Question: And the IC50 [2, 6]?
Answer: > 10 µM

Question: How did the IC50 [1, 7] turn out when CNC(=O)c1sccc1Nc1nc(Nc2ccc3c(c2)OCCCN3C(=O)OC(C)C)ncc1Cl [Example 1435, 3-[5-Chloro-4-(2-methylcarbamoyl-thiophen-3-ylamino)-pyrimidin-2-ylamino]-7,8-dihydro-6H-5-oxa-9-aza-benzocycloheptene-9-carboxylic acid isopropyl ester] was run?
Answer: 0.1 to 1 µM

Question: What about the IC50 [2, 8] of the same molecule?
Answer: 0.1 to 1 µM

Question: COc1cc2c(cc1Nc1ncc(Cl)c(Nc3ccc(N4CCN(C)CC4)cc3C)n1)CCN(CC(=O)N(C)C)CC2 [Example 802, 2-(7-{5-Chloro-4-[2-methyl-4-(4-methyl-piperazin-1-yl)-phenylamino]-pyrimidin-2-ylamino}-8-methoxy-1,2,4,5-tetrahydro-benzo[d]azepin-3-yl)-N,N-dimethyl-acetamide] was tested. Which IC50 [1, 3] did it give?
Answer: < 0.1 µM

Question: What about the IC50 [2, 4] of the same molecule?
Answer: > 10 µM

Question: For CNC(=O)c1scc(C)c1Nc1nc(Nc2ccc3c(c2)CCOC(=O)N3C)ncc1Cl [Example 1759, 3-[5-Chloro-2-(5-methyl-6-oxo-5,6,8,9-tetrahydro-7-oxa-5-aza-benzocyclohepten-2-ylamino)-pyrimidin-4-ylamino]-4-methyl-thiophene-2-carboxylic acid methylamide], which IC50 [1, 5] is on record?
Answer: 1 to 10 µM

Question: What about the IC50 [2, 6] of the same molecule?
Answer: < 0.1 µM

Question: Which IC50 [1, 7] does the source give for CS(=O)(=O)c1cccc(F)c1Nc1nc(Nc2ccc3c(c2)NC(=O)CCC3)ncc1Cl [Example 1261, 8-[5-Chloro-4-(2-fluoro-6-methanesulfonyl-phenylamino)-pyrimidin-2-ylamino]-1,3,4,5-tetrahydro-1-benzazepin-2-one] here?
Answer: 1 to 10 µM

Question: And the IC50 [2, 8]?
Answer: > 10 µM

Question: Which results are given for COCC(COC)N1CCc2cc(Nc3ncc(Cl)c(Nc4ccc(C(N)=O)cc4OC)n3)c(OC)cc2CC1 [Example 1153, 4-{5-Chloro-2-[8-methoxy-3-(2-methoxy-1-methoxymethyl-ethyl)-2,3,4,5-tetrahydro-1H-benzo[d]azepin-7-ylamino]-pyrimidin-4-ylamino}-3-methoxy-benzamide]?
Answer: IC50 [1, 7]: < 0.1 µM; IC50 [2, 8]: > 10 µM

Question: Which IC50 [1, 3] does the source give for CCNC(=O)c1ccccc1Nc1nc(Nc2ccc3c(c2)N(CC)CCN(CC)C3)ncc1Cl [Example 718, 2-[5-Chloro-2-(1,4-diethyl-2,3,4,5-tetrahydro-1H-1,4-benzodiazepin-8-ylamino)-pyrimidin-4-ylamino]-N-ethyl-benzamide] here?
Answer: < 0.1 µM

Question: What about the IC50 [2, 4] of the same molecule?
Answer: < 0.1 µM

Question: Which results are given for COc1cc2c(cc1Nc1ncc(Cl)c(Nc3ccc(C)cc3S(=O)(=O)N(C)C)n1)CCN(CC(=O)N(C)C)CC2 [Example 830, 2-{7-[5-Chloro-4-(2-dimethylsulfamoyl-4-methyl-phenylamino)-pyrimidin-2-ylamino]-8-methoxy-1,2,4,5-tetrahydro-benzo[d]azepin-3-yl}-N,N-dimethyl-acetamide]?
Answer: IC50 [1, 3]: < 0.1 µM; IC50 [2, 4]: > 10 µM
